We go through one compound from US20080038288A1, “Prevention of damage in hippocampus of fetus/newborn infant due to maternal gestational hypertension” (priority 2006, published 2008).

For test [1], the system named is E21 day rat embryo hippocampal cells. In words: Flow cytometry of hippocampal cell cycle in E21 embryos of L-NAME gestational hypertension rats. Format: in vivo. The note with it: dam given L-NAME 60 mg/kg/day i.p. plus gastric feeding E14-20, mean ± sx. The source says: (§1) Animal groups and administration of medication. Gestational hypertension (GH) was produced in rats using the L-NAME (a type of NOS inhibitor) method of Yallampalli et al. [Yallampalli et al., Am J Obstet Gynecol., 1993, 169:1316-1320]. Forty mature (11-12 weeks old) SD female rats weighing 200-230 g; 10 mature (13-15 weeks old) SD male rats weighing 250-300 g. At a ratio of […], the rats were paired in cages, on the second day the female rats' vaginal secretions were observed (smear technique) and those containing sperm were considered to be at day 0 of pregnancy (E0). […] L-NAME was given by two injections at a total dose of 60 mg/kg/day. Two hours after each injection, the pregnant rats received gastric feeding of distilled water, L-arginine or GLSs. The GLSs were provided by Kindway International Ltd./Holistol International Ltd., license number GANSPSP04040104. The L-arginine was purchased from the Amresco Company.
(§2) Preparation of histological materials. Some of the pregnant rats were anesthetized at E21 day with an i.p. injection of 1% pentobarbital (35 mg/kg). The embryos were removed from the uterus. […]
Hippocampal tissue separated from E21 day rat embryos was placed in a culture dish and sheared into pieces, 0.01 mol/L phosphate buffered saline (PBS) was added and repeatedly triturated, filtered through a 100-mesh screen, and the single-cell suspension obtained was fixed in 75% alcohol at 4° C. to await testing. Before testing, the extracted cell suspension was centrifuged to remove the supernatant, 100 μL RNase (0.1 mg/L) added, placed at 37° C. for 30 min, after rinsing with normal saline, propidium iodine (PI) stain (0.05 mg/L, 0.03% Triton X-100 0.5 mL) was added, placed at 4° C. protected from light to react for 30 min, then measured. In flow cytometry, a 488 nm laser used Cell Fit software to collect 10,000 cells/specimen cell cycle data was analyzed and one-way ANOVA testing performed for statistical processing.

The next test has as its system hippocampus microvessels. Kind of test: Hippocampal microvessel density, vWF immunohistochemical staining, Weidner counting. Format: in vivo, rat. To be noted: dam given L-NAME plus gastric feeding E14-20, mean ± sd.
Text: as §1, §2
Hippocampal microvessel density: The Weidner counting method was used to determine the microvessel standard [Weidner et al., Am J Pathol. […] Under a light microscope (200×), microvessel numbers were counted in five visual fields. […]

In test [2] the test system is hippocampus CA1, CA3 and DG neurons. Kind of test: Morphometric analysis: hippocampal cell layer thickness and neuron body count, neutral red staining. Format: in vivo, rat. To be noted: P30 rats, mean ± sd.
Text: as §1
Preparation of histological materials. Some of the pregnant rats were anesthetized at E21 day with an i.p. injection of 1% pentobarbital (35 mg/kg). The embryos were removed from the uterus. Some were placed in a freezer dish and the hippocampal tissue was removed from the brains of the embryos, placed in an Eppendorf tube and stored at −80° C. to await testing. The rest of the embryonic brains were fixed in a 4% paraformaldehyde solution. Another group of pregnant rats went into normal labor, and the young rats were fed and raised until 30 days of […] (P30). Some of the young rats received the preceding pentobarbital anesthesia and their hippocampal tissue was placed in a freezer dish and stored to await testing. The rest of the rats in the P30 group received pentobarbital anesthesia as above, their chests were opened and an aortic cannula inserted through the left ventricle. One group of young rats was first quickly perfused with normal saline and then 4% paraformaldehyde 0.1 mol/L phosphate buffer (PB) (pH 7.4). Then the fixed cerebral corona was continuously frozen and sectioned at a thickness of 15 μm. Sectioning started at the alveus of the hippocampus, one section every 300 μm, and six sections were taken from each brain, for a collection of six sets of sections.
Morphometric analysis. Various cell layer thicknesses from various areas of the hippocampus were measured and a neuron body count obtained. Under a low-magnification microscope, two visual fields were randomly selected from the CA1, CA3 and DG regions. Under a high-magnification microscope (200×), the cell layer thickness was measured and the number of nucleated neuron bodies counted. The cell layer thicknesses or body numbers are the averages of two visual fields.

The subject of test [3] is hippocampus dentate gyrus proliferating cells. Kind of test: BrdU labeling, positive cell counts at hippocampus dentate gyrus of P30 rats born to L-NAME rats. In kind it is in vivo, rat. The note with it: dam given L-NAME plus gastric feeding E14-20, mean ± sd.
Text: as §1
Preparation of histological materials. Some of the pregnant rats were anesthetized at E21 day with an i.p. injection of 1% pentobarbital (35 mg/kg). The embryos were removed from the uterus. Some were placed in a freezer dish and the hippocampal tissue was removed from the brains of the embryos, placed in an Eppendorf tube and stored at −80° C. to await testing. The rest of the embryonic brains were fixed in a 4% paraformaldehyde solution. […]
(In general: Dividing cells build labelled thymidine or BrdU into new DNA.)

Marks after values point to notes of the source that are not given here.

Turning to `N=C(N)NCCC[C@H](N)C(=O)O` [L-arg, L-arginine], in test [1], the “Percentage of hippocampal cells in G1/G0 phase” value is 82.74 ± 2.75^h %, the “Percentage of hippocampal cells in G2/M phase” value was 1.44 ± 0.44^i % and the “Percentage of hippocampal cells in S phase” value is reported as 15.34 ± 2.92^g %. In the test with hippocampus microvessels (E21 embryos), the “Microvessel density at the hippocampus, E21” value is listed as 39.80 ± 4.79^e. In addition, in the test on hippocampus microvessels (P30 rats), the “Microvessel density at the hippocampus, P30” value was 75.25 ± 3.86^f. Moreover, in test [2] (CA1 area), the “Hippocampal cell layer thickness CA1” value is recorded as 115.23 ± 9.49^m μm and the “Neuron body counts CA1” value was 31.80 ± 1.15^n num. Further, in test [2] (CA3 area), the “Hippocampal cell layer thickness CA3” value is 90.64 ± 6.18^o μm and the “Neuron body counts CA3” value is reported as 23.00 ± 0.83^p num. Also, the “Hippocampal cell layer thickness DG” value in test [2] (DG area) is given as 64.87 ± 4.42^q μm. Moreover, in test [3], the “BrdU positive cell counts at hippocampus dentate gyrus” value was 38.00 ± 1.04^c.
